These results are taken from patent publication US10464925B2, “Methods to induce targeted protein degradation through bifunctional molecules” (Dana-Farber Cancer Institute, Inc., priority 2015, dated 2019).

Structures are written as SMILES.

For one assay, the system named is HCC1315. The experiment in a line: cells. The conditions noted are these: 72 h.
For the next assay, the system named is DND41. The experiment in a line: Cell viability, ATPlite 48 hours, DND41. In kind it is cell-based. The conditions noted are these: DND41 cells. On the technique in general: In ATP-based viability assays light output follows the ATP content of the culture.
The next assay relates to CUTL1. Description: Cell viability, ATPlite 48 hours, CUTLL1. In kind it is cell-based. The conditions noted are these: CUTL1 cells.
The next assay deals with KARPAS. The experiment in a line: cells. The conditions noted are these: 72 h.

Method for CUTL1: (§1) ATP content was measured as a surrogate for cellular viability using ATPlite (Promega).
Method for DND41: as §1

The term Emax denotes the size of the effect at its maximum, as opposed to the concentration needed. Broadly, the IC50 is the concentration that inhibits the measured activity by half. For the compound `Cc1sc2c(c1C)C(c1ccc(Cl)cc1)=N[C@@H](CC(=O)NCCCCCCCCNC(=O)COc1cccc3c1C(=O)N(C1CCC(=O)NC1=O)C3=O)c1nnc(C)n1-2` (stereo partly drawn) [dBET6], the figures for the Emax with HCC1315 (read-out: Emax (%) HCC1315) and in the assay with KARPAS (read-out: Emax (%) KARPAS) were 41.2% and 21%, respectively. The IC50 with HCC1315 (read-out: IC50 (nM) HCC1315) amounted to 1060 nM; in the assay with DND41 it was 34.4 nM; in the assay on CUTL1 it was 70.8 nM; in the assay with KARPAS (read-out: IC50 (nM) KARPAS) it was 2.18 nM.
